The test system of test [1] is T1, Mcm2-7.
T1 construct: made in house; host or cells: baculovirus-infected insect cells
Kind of test: ssDNA double filter-binding assay, Mcm2-7. On the set-up: species or system Saccharomyces cerevisiae. The note with it: 1 mM compound, 150 nM helicase.

In test [2] the target is T2, Mcm467 (Saccharomyces cerevisiae, UniProt P30665+P38132+P53091).
T2 construct: made in house; host or cells: baculovirus-infected insect cells
Put plainly: ssDNA double filter-binding assay, Mcm467. The note with it: 1 mM compound, 150 nM helicase.

Test [3] addresses T1, Mcm2-7. Put plainly: Mcm2-7 helicase (DNA unwinding) assay. It counts as biochemical, Saccharomyces cerevisiae. The note with it: for IC50: DNA unwinding.
The target of test [4] is T2, Mcm467. Put plainly: Mcm467 helicase (DNA unwinding) assay. It is filed as biochemical.
For test [5], the target named is SV40 large TAg (T-antigen) (Simian virus 40, UniProt P03070). Kind of test: biochemical. On the set-up: species or system SV40 (simian virus 40). The note with it: for IC50: DNA unwinding.
Chain of SV40 large TAg (T-antigen) (P03070 whole entry, looked up): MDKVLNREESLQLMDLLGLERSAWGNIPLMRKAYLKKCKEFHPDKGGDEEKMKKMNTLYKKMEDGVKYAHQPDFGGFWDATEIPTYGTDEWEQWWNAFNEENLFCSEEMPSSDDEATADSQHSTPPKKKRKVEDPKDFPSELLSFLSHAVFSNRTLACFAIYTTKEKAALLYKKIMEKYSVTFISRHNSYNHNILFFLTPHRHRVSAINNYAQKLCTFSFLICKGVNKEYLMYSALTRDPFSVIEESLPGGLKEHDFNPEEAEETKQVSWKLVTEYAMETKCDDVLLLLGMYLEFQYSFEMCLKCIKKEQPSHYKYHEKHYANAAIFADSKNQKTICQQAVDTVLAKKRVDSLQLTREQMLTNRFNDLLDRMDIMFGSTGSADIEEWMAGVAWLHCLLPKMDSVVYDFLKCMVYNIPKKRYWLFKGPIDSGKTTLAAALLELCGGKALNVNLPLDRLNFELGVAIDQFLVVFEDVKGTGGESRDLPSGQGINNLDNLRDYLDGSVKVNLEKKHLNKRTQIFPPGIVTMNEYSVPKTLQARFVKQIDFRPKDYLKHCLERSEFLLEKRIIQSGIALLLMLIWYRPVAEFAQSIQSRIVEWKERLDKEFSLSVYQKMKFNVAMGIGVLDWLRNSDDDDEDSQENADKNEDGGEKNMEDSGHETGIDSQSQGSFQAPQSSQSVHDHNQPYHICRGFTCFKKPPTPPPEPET
Test [6] concerns S. cerevisiae ∆erg6 (UPY675). Put plainly: Yeast growth inhibition, 96-well assay, ∆erg6 strain. It counts as cell-based, Saccharomyces cerevisiae. The note with it: for IC50: Saccharomyces cerevisiae, ∆erg6 strain, growth over 24 h, read-out: IC50 Yeast.
For test [7], the system named is RPE-hTERT cells. Put plainly: Human cell viability, MTS method. The note with it: 48 h, value (95% CI). It is filed as cell-based. As to the method: Ciproﬂoxacin is an inhibitor of the Mcm2-7 […]
The viability of human cells was assayed using the MTS method
[1]. Brieﬂy, 1 ×10^5 cells of the human non-tumour cell line RPE-hTERT were plated into each well of a 96-well plate and grown in DMEM: F12 containing 10 % (v/v) FBS in 5 % (v/v) CO2 at 37 ◦ C. The next day, the indicated compounds were titrated into media such that the ﬁnal concentration contained 1 % (v/v)
DMSO. As a negative control, media were also prepared that contained 1 % DMSO but lacked compound. After 48 h, the media was removed and replaced with DMEM lacking phenol red but containing Cell Titer 96 Aqueous One Solution Cell Proliferation
Assay (Promega). After 1 h, the A490 nm was measured using a BioRad iMark Microplate Reader (Hercules). Final data reﬂect the average and standard deviation (S.D.) of three replicates at each compound concentration. […]
On the technique in general: Formazan colour is commonly taken as a measure of viable cells.

For test [8], the system named is pUC19. Kind of test: DNA intercalation assay (Topo I-relaxed plasmid). It is filed as biochemical. The source says:
To examine this model, we tested our inhibitors in a standard topoisomerase assay. The rationale of this assay is that intercalating compounds will introduce supercoils into a fully relaxed plasmid. Topo I will remove these introduced supercoils, but after quenching and gel electrophoresis the intercalator will diffuse away and produce a detectable compensatory supercoiling increase.

For test [9], the target named is DnaB (Escherichia coli, UniProt P0ACB0). Put plainly: DnaB helicase assay. It is filed as biochemical. The note with it: 1 mM, Figure S3. As to the method:
(§1) Helicase assays were performed essentially as described. Synthetic replication forks were prepared by annealing oligos 233 and 235 [IDT (Coralville), oligo 233 5′(T)40[…]; oligo 235 5′ […](T)40] and then filling in the recessed 3′-end with [α32P]dATP and unlabelled dNTPs using Klenow Fragment. Briefly, reactions ([…]) were performed in 1× helicase assay buffer [20 mM Tris/HCl (pH 7.5), 10 mM MgOAc, 20% (v/v) glycerol, 100 μM EDTA and 5 mM DTT (dithiothreitol)] and contained a final concentration of 1 nM fork substrate, 5 mM ATP, 40 mM creatine phosphate, […] creatine kinase, 33 μg/ml BSA. Reactions containing Mcm2-7 and Mcm467 were supplemented with 200 mM potassium glutamate. Reactions containing SsoMcm were incubated at 65°C, those containing T4 gp41 were incubated for 30 min at 37°C, and all other reactions were incubated at 37°C for 1 h. The products were separated by 10% (w/v) native PAGE, the resulting gels dried and the radioactivity quantified using a Fuji FLA-5100 phosphoimager. Irrespective of the protein used, all helicase assays contained equal molar helicase concentrations (100 nM, assuming in all cases that the active helicase form is hexameric). Steady-state ATP hydrolysis was assayed as published. In short, reactions were set up essentially as in the helicase assay, with minor exceptions. A non-radiolabelled DNA fork was used, helicase concentration was 100 nM (hexamer) the total ATP concentration was 500 μM and included ~0.5 μCi of [α32P]ATP, and the ATP regeneration system was omitted. Reactions were incubated for 1 h at 37°C and stopped by the addition of SDS. ATP was separated from ADP by PEI (polyethyleneimine) thin layer chromatography, and the ratio of ATP:ADP was quantified using a Fuji FLA-5100 phosphoimager. Based on our prior work, conditions were established to ensure that the results shown are within the linear range of the assay. Protein–ssDNA binding was determined with a double filter-binding assay using an ssDNA probe (oligo 826, 5′[…]) that was 5′-radiolabelled using T4 polynucleotide kinase and [γ32P]ATP [16]. For the double filter-binding assay, the helicase concentration was 150 nM (hexamer) and the ssDNA concentration was 4 nM. For all biochemical assays, helicases were preincubated with inhibitors for 20 min at 37°C unless otherwise indicated. […]
(§2) against different helicases
(§3) Representative helicase activity assays in the presence of the indicated inhibitor were tested, quantiﬁed and standardized as described in the legend to F igures 2 (A) and (B). All helicases were assayed at 100 nM
(§4) ﬁnal concentration (hexamer) with inhibitor preincubation prior to ATP […]
(§5) F igure S3 Ciproﬂoxacin poor ly inhibits hexameric helicases un- […]
(§6) All inhibitors were used at 1 mM ﬁnal concentration. […]

Test [10] has as its target T3, T4 gp41 (Enterobacteria phage T4, UniProt P04530).
T3 sequence (P04530 1-475): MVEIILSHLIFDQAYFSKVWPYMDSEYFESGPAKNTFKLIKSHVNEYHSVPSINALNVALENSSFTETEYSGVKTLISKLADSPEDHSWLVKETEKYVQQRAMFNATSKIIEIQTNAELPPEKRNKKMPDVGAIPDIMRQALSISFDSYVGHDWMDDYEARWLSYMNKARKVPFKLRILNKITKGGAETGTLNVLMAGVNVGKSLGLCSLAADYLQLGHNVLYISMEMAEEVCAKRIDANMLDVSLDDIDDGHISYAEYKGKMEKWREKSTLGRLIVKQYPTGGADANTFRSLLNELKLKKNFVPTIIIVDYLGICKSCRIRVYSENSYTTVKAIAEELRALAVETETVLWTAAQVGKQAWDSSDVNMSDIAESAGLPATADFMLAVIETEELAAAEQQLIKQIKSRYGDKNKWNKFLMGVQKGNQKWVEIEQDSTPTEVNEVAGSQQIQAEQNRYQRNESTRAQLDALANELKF
Put plainly: T4 gp41 helicase assay. It is filed as biochemical. The note with it: 1 mM, Figure S3. As to the method: as §1, §2, §3, §4, §5, §6

The subject of test [11] is T1, Mcm2-7. Put plainly: Steady-state ATP hydrolysis by Mcm2-7. It counts as biochemical, Saccharomyces cerevisiae. The note with it: 1 mM compound, 100 nM hexamer.
The target in test [12] is T2, Mcm467. Put plainly: Steady-state ATP hydrolysis by Mcm467. It counts as biochemical. The note with it: 1 mM compound, 100 nM hexamer.
In test [13] the target is T4, SV40 large TAg (Simian virus 40, UniProt P03070).
T4 construct: made in house
T4 sequence (P03070 whole entry): as the sequence (P03070 whole entry, looked up) above
Kind of test: Steady-state ATP hydrolysis by TAg. It counts as biochemical, SV40 (simian virus 40). The note with it: 1 mM compound, 100 nM hexamer.

The mark [14] stands for this setting: 100 nM hexamer, inhibitor preincubation, […], read-out: IC50 T-antigen.
Setting [15] is: 1 mM inhibitor added after plasmid relaxation (Figure 3C).
Where [16] appears, read: inhibitor at 2- to 3-fold over calculated helicase IC50 (Figure 3E).
Where [17] appears, read: 100 nM hexamer, inhibitor preincubation, value (95% CI), read-out: IC50 Mcm2-7.
Where [18] appears, read: DNA unwinding, 100 nM hexamer, inhibitor preincubation, value (95% CI), read-out: IC50 Mcm467.
The mark [19] stands for this setting: any concentration tested, results not shown.

Like-named read-outs stand apart in the source and are kept apart here. A value given as a limit tells only on which side of the number the result lay.

T2 sequence (P30665 whole entry): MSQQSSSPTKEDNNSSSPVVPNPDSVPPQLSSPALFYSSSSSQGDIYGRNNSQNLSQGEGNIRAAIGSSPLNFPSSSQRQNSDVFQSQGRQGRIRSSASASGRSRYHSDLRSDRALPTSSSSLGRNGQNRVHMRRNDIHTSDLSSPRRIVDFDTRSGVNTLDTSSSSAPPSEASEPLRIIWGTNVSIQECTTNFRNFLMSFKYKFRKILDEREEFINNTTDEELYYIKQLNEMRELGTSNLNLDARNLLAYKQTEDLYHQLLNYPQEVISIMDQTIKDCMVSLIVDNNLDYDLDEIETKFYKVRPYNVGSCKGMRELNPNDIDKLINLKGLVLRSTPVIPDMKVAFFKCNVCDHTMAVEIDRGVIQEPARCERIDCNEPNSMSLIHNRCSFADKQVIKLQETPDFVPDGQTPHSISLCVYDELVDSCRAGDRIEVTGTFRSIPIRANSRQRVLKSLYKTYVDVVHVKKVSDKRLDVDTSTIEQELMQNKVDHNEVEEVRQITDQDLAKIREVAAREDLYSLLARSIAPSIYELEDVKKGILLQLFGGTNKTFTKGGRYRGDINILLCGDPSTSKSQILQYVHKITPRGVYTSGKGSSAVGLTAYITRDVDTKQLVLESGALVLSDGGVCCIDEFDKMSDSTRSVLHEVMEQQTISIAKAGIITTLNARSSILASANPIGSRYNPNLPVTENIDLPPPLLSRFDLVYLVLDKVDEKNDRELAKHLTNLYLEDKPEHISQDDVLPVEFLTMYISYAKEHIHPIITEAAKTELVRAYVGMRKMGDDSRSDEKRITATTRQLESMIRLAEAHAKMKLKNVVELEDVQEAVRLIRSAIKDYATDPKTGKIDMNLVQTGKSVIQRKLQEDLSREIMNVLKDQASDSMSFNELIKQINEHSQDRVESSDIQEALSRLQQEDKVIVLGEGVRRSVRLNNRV
T2 sequence (P53091 whole entry): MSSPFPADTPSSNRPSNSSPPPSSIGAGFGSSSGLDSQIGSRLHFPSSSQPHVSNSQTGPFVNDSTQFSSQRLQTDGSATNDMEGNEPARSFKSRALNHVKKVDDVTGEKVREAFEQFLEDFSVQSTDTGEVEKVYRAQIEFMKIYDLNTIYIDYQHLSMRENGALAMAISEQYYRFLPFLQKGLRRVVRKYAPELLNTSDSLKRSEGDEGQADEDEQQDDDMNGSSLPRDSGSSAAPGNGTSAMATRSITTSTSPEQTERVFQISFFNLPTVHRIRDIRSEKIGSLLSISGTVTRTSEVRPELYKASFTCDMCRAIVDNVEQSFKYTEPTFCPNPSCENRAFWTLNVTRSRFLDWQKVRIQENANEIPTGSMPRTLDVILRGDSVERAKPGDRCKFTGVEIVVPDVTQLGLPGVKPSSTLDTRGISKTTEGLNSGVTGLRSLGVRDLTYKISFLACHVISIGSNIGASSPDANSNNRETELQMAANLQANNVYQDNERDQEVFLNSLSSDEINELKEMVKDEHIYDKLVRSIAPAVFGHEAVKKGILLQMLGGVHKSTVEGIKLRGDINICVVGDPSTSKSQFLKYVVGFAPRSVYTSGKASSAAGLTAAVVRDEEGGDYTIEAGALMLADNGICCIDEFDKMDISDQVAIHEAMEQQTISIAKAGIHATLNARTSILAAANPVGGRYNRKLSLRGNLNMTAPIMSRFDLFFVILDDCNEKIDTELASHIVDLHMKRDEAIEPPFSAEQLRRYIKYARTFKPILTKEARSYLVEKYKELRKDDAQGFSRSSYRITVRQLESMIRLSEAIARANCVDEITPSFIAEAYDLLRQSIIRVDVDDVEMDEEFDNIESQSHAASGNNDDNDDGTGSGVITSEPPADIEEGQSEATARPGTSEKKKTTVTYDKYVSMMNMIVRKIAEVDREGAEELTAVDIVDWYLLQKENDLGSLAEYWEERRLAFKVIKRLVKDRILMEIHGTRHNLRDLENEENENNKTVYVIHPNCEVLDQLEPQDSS
T2 sequence (P38132 whole entry): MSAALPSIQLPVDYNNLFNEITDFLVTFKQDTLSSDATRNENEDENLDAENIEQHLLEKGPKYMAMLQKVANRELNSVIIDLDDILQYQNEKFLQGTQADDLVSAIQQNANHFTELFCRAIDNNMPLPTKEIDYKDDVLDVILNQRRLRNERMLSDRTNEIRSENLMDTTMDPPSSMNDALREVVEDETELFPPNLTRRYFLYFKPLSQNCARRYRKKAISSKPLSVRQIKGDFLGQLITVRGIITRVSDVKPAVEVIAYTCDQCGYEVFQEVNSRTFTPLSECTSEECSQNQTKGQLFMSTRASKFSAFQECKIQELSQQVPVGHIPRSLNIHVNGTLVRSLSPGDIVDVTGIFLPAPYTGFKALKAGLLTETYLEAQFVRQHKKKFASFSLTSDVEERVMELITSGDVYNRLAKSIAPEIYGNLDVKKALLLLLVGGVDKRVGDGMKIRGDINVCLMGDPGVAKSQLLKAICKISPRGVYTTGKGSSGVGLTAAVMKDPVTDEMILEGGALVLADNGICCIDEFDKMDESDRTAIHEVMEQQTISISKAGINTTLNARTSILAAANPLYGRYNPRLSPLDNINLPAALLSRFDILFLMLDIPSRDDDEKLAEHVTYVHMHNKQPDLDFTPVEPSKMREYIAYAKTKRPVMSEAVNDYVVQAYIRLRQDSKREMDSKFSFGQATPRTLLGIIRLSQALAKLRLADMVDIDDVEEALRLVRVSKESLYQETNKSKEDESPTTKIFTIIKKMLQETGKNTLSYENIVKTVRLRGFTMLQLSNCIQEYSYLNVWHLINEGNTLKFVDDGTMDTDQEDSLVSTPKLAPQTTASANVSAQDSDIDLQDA
Chain of DnaB (P0ACB0 whole entry, the tested form may be a part): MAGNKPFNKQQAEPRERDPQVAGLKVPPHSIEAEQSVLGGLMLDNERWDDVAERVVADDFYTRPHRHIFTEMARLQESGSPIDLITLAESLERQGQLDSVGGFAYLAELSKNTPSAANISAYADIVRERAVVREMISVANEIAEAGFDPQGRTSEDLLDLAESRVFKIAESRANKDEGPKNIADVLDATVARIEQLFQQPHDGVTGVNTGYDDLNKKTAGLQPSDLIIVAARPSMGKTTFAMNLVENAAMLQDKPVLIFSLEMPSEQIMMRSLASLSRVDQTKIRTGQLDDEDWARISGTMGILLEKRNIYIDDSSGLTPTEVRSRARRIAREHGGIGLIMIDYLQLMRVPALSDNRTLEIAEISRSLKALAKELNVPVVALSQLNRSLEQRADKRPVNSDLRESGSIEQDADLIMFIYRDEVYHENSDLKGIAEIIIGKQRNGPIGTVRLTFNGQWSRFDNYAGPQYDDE

Regarding `CCN1C(=O)C=CC1=O` [NEM, N-ethylmaleimide], in [1], the “effect on ssDNA binding of Mcm2-7” value is listed as “inhibit”. In addition, in test [2], the “effect on ssDNA binding of Mcm467” value is recorded as “inhibit”.
The term IC50 denotes the point on the concentration scale where inhibition reaches its midpoint. As for `Cc1c(F)c(N2CCC(N)C2)nc2c1c(=O)c(C(=O)O)cn2C1CC1` (stereo not shown) [compound 125248], the concentration for half-maximal inhibition (IC50) in test [3] (read-out: IC50 Mcm2-7, 100 nM hexamer, inhibitor preincubation, value (95% CI)) was 72 µM; in test [4] (IC50 Mcm467, DNA unwinding, 100 nM hexamer, inhibitor preincubation, value (95% CI)), 130 µM; in test [5] (setting [14]) it was 190 µM; in [6] (value (95% CI)), 460 µM; in test [7] it was 14 µM; in [7] (Homo sapiens) it was about 10 µM. Further, the figures for the DNA intercalation entry in test [8] (setting [15]) and in test [8] (setting [16]) were “extensive DNA intercalation” and “significant DNA intercalation”, respectively. In addition, the “inhibition of DnaB helicase” value in test [9] is “nearly complete inhibition”. Further, the “inhibition of T4 gp41 helicase” value in [10] is “nearly complete inhibition”.
As for `NC1CCN(c2ccc3c(=O)c(C(=O)O)cn(-c4ccc(O)cc4)c3c2Cl)C1` (stereo not shown) [compound 268973], the concentration for half-maximal inhibition (IC50) in test [3] (setting [17]) was 188 µM; in test [4] (setting [18]), 272 µM; in test [5] (setting [14]), 476 µM; in test [6] (value (95% CI)) it was 160 µM. The “effect on ATP hydrolysis of Mcm2-7” value in test [11] was “modest inhibition”. Besides, the “effect on ATP hydrolysis of Mcm467” value in test [12] is listed as “modest inhibition”. Also, the “effect on ATP hydrolysis of TAg” value in test [13] was “modest inhibition”. Also, the DNA intercalation entry was “extensive DNA intercalation” in test [8] (setting [15]) and “significant DNA intercalation” in test [8] (setting [16]). Moreover, the “inhibition of DnaB helicase” value in test [9] is given as “nearly complete inhibition”. For the same molecule, the “inhibition of T4 gp41 helicase” value in [10] is “nearly complete inhibition”.
As to `Cc1ccc(-c2cc(-c3ccccc3)nc(N3CCNCC3)n2)cc1` [compound 388612], the half-maximal inhibitory concentration (IC50) in test [3] (setting [17]) is 396 µM; in test [4] (setting [18]) it was 345 µM; in [5] (setting [14]) it was 126 µM; in test [6] (insufficient data for 95% CI) it was under 0.01 µM. Moreover, in test [8] (setting [15]), the DNA intercalation entry is given as “extensive DNA intercalation”.
As for `c1ccc(Nc2nc(Nc3ccccc3)nc(N3CCNCC3)n2)cc1` [compound 924384], the IC50 in test [3] (setting [17]) is 115 µM; in [4] (setting [18]), 246 µM; in [5] (setting [14]), 70 µM; in test [6] (value (95% CI)) it was 93 µM; in test [7] (Homo sapiens), about 10 µM. The DNA intercalation entry in test [8] (setting [15]) is “extensive DNA intercalation”. Also, the “inhibition of DnaB helicase” value in test [9] is “nearly complete inhibition”. In [10], the “inhibition of T4 gp41 helicase” value is recorded as “nearly complete inhibition”.
With `CCn1cc(C(=O)O)c(=O)c2ccc(C)nc21` [naladixic acid, reference compound], the “effect on Mcm2-7 helicase activity” value in test [3] (setting [19]) is “essentially no effect”. In [4] (setting [19]), the “effect on Mcm467 helicase activity” value was “essentially no effect”. Besides, in test [5] (setting [19]), the “effect on TAg helicase activity” value was “essentially no effect”.
As for `CC1COc2c(N3CCN(C)CC3)c(F)cc3c(=O)c(C(=O)O)cn1c23` (stereo not shown) [ofloxacin, reference compound], the 50% inhibitory concentration (IC50) in [3] (100 nM complex, read-out: IC50 Mcm2-7 helicase activity) is 4170 µM; in test [4] (DNA unwinding, 100 nM complex, read-out: IC50 Mcm467 helicase activity), 5290 µM; in test [5] (100 nM complex, read-out: IC50 TAg helicase activity) it was over 20000 µM. In addition, the “growth response of ∆erg6 yeast” value in test [6] (Figure 4A) is “demonstrable growth sensitivity”.

Values taken from publication PMC3791872 (Bioscience Reports, 2013).
